Where two headings read alike, the source gives them in different places.
How the values were obtained:
Assay in all cases: Antibacterial activity, MIC by agar dilution (CLSI)
Type in all cases: cell-based
E. coli 13351 = details: compound tested alone
Protocol: (§1) The biological activity of representative compounds according to the invention against various bacterial strains was investigated. In a typical study, overnight grown bacterial cultures were diluted appropriately and inoculated on the agar media containing doubling dilutions of the test compounds. Observations for growth or no growth was performed after 16-20 hours of incubation at 35±2° C. in the ambient air. The overall procedure was performed as per Clinical and Laboratory Standards Institute (CLSI) recommendations, (Clinical and Laboratory Standards Institute (CLSI), Performance Standards for Antimicrobial Susceptibility Testing, 20th Informational Supplement, M07-A9, Volume 32, No. 2, 2012). Molten Mueller Hinton Agar (BD, USA) containing serial dilutions of each antibacterial agent were poured on to the plates and allowed to solidify. Appropriate suspensions from the freshly grown cultures were prepared in normal saline so that about 10^4CFU/spot of the organism was delivered on to the drug containing agar plates using automated multipoint inoculator (Mast, UK). The plates were incubated in Biochemical oxygen demand (BOD) incubator at 37° C. for 18 hours and then examined for growth.
(§2) Method for the determination of MIC: The Minimum Inhibitory Concentration (MIC) determination for the combinations was carried out in Muller Hinton Agar (MHA) (BD, USA) according to Clinical and Laboratory Standards Institute (CLSI) recommendations, (Clinical and Laboratory Standards Institute (CLSI), Performance Standards for Antimicrobial Susceptibility Testing, 20th Informational Supplement, M 100-S20, Volume 30, No. 1, 2010). In short, the test strains were adjusted to deliver about 10^4CFU per spot with a multipoint inoculator (Applied Quality Services, UK). The plates were poured with MHA containing doubling concentration range of representative compounds according to present invention. The plates were inoculated and were incubated at 35° C. for 18 hour. […] The Table 2 depicts the antibacterial activity profile of compounds according to present invention against various multidrug resistant bacterial strains.

E. coli 13352 = details: compound tested alone
Protocol: as §1, §2

E. coli 13353 = details: compound tested alone
Protocol: as §1, §2

E. coli 7 MP = details: compound tested alone
Protocol: as §1, §2

E. coli H 483 = details: Escherichia coli, H483, compound tested alone, read-out: MIC
Protocol: as §1, §2

E. coli M 138 = details: compound tested alone
Protocol: as §1, §2

E. coli M 36 = details: compound tested alone
Protocol: as §1, §2

E. coli M 49 = details: compound tested alone
Protocol: as §1, §2

E. coli M 50 = details: compound tested alone
Protocol: as §1, §2

[1] = tested on: K. pneumoniae ATCC 700603
Protocol: as §1, §2

K. pneumoniae H 521 = details: compound tested alone
Protocol: as §1, §2

K. pneumoniae H 522 = details: compound tested alone
Protocol: as §1, §2

K. pneumoniae H 523 = details: compound tested alone
Protocol: as §1, §2

K. pneumoniae H 525 = details: compound tested alone
Protocol: as §1, §2

P. mirabilis S 137B = details: compound tested alone
Protocol: as §1, §2

[2] = Escherichia coli, 13351, E. coli 13351, read-out: MIC
[3] = Escherichia coli, 13352, E. coli 13352, read-out: MIC
[4] = Escherichia coli, 13353, E. coli 13353, read-out: MIC
[5] = Escherichia coli, 7MP, read-out: MIC
[6] = Escherichia coli, M138, E. coli M 138, read-out: MIC
[7] = Escherichia coli, M36, E. coli M 36, read-out: MIC
[8] = Escherichia coli, M49, E. coli M 49, read-out: MIC
[9] = Escherichia coli, M50, E. coli M 50, read-out: MIC
[10] = Klebsiella pneumoniae, ATCC700603, compound tested alone, read-out: MIC
[11] = Klebsiella pneumoniae, H521, K. pneumoniae H 521, read-out: MIC
[12] = Klebsiella pneumoniae, H522, K. pneumoniae H 522, read-out: MIC
[13] = Klebsiella pneumoniae, H523, K. pneumoniae H 523, read-out: MIC
[14] = Klebsiella pneumoniae, H525, K. pneumoniae H 525, read-out: MIC
[15] = Proteus mirabilis, S137B, read-out: MIC

MIC (E. coli 13351; [2]) [µg/mL]	MIC (E. coli 13352; [3]) [µg/mL]	MIC (E. coli 13353; [4]) [µg/mL]	MIC (E. coli 7 MP; [5]) [µg/mL]	MIC (E. coli M 138; [6]) [µg/mL]	MIC (E. coli M 36; [7]) [µg/mL]	MIC (E. coli M 49; [8]) [µg/mL]	MIC (E. coli M 50; [9]) [µg/mL]	MIC [1, 10] [µg/mL]	MIC (K. pneumoniae H 521; [11]) [µg/mL]	MIC (K. pneumoniae H 522; [12]) [µg/mL]	MIC (K. pneumoniae H 523; [13]) [µg/mL]	MIC (K. pneumoniae H 525; [14]) [µg/mL]	MIC (P. mirabilis S 137B; [15]) [µg/mL]	SMILES	also measured
2	2	2	8	2	2	8	2	> 32	4	4	4	4	> 32	Nc1cn([C@@H]2CN[C@H](CONC(=O)[C@@H]3CC[C@@H]4CN3C(=O)N4OS(=O)(=O)O)C2)cn1 [Example 16]	MIC (E. coli H 483): > 32 µg/mL
4	4	2	8	4	1	16	2	> 32	4	4	4	4	> 32	O=C(NOC[C@@H]1C[C@H](n2ncnn2)CN1)[C@@H]1CC[C@@H]2CN1C(=O)N2OS(=O)(=O)O [Example 1, (2S,5R)-N-{[(2S,4S)-4-(2H-tetrazol-2-yl)pyrrolidin-2-yl]methyloxy}-7-oxo-6-(sulfooxy)-1,6-diazabicyclo[3.2.1]octane-2-carboxamide]	–
1	1	0.5	2	2	1	8	1	> 32	4	4	4	8	> 32	O=C(NNC(=O)[C@@H]1CC[C@@H]2CN1C(=O)N2OS(=O)(=O)O)[C@@H]1C[C@H](n2nccn2)CN1 [Example 25]	–
1	1	0.5	2	1	0.5	4	1	> 32	1	1	1	1	> 32	O=C(NOC[C@@H]1CC(n2cccn2)CN1)[C@@H]1CC[C@@H]2CN1C(=O)N2OS(=O)(=O)O (stereo partly drawn) [Example 8]	–
–	–	–	–	–	–	–	–	–	–	–	–	–	–	O=C(NNC(=O)[C@@H]1CC[C@@H]2CN1C(=O)N2OS(=O)(=O)O)[C@@H]1C[C@@H](n2cccn2)CN1 [Example 32]	MIC (E. coli 13351; E. coli 13351): 4 µg/mL; MIC (E. coli 13352; E. coli 13352): 4 µg/mL; MIC (E. coli 13353; E. coli 13353): 4 µg/mL; MIC (E. coli 7 MP): 16 µg/mL; MIC (E. coli M 138; E. coli M 138): 4 µg/mL; MIC (E. coli M 36; E. coli M 36): 4 µg/mL; MIC (E. coli M 49; E. coli M 49): 32 µg/mL; MIC (E. coli M 50; E. coli M 50): 4 µg/mL; MIC ([1]; compound tested alone): >32 µg/mL; MIC (K. pneumoniae H 521; K. pneumoniae H 521): 8 µg/mL; MIC (K. pneumoniae H 522; K. pneumoniae H 522): 8 µg/mL; MIC (K. pneumoniae H 523; K. pneumoniae H 523): 8 µg/mL; MIC (K. pneumoniae H 525; K. pneumoniae H 525): 8 µg/mL; MIC (P. mirabilis S 137B): >32 µg/mL
4	4	4	8	4	2	16	2	> 32	8	4	4	4	> 32	O=C(NNC(=O)[C@@H]1CC[C@@H]2CN1C(=O)N2OS(=O)(=O)O)[C@@H]1C[C@@H](n2ccnc2)CN1 [Example 33]	–
–	–	–	8	2	2	–	–	> 32	4	4	4	4	> 32	O=C(NNC(=O)[C@@H]1CC[C@@H]2CN1C(=O)N2OS(=O)(=O)O)[C@@H]1C[C@@H](n2cccn2)CN1 [Example 3]	MIC (E. coli 13351; E. coli 13351): 1 µg/mL; MIC (E. coli 13352; E. coli 13352): 1 µg/mL; MIC (E. coli 13353; E. coli 13353): 1 µg/mL; MIC (E. coli M 49; E. coli M 49): 4 µg/mL; MIC (E. coli M 50; E. coli M 50): 1 µg/mL
1	1	1	8	2	1	> 32	1	> 32	4	4	4	4	> 32	O=C(NNC(=O)[C@@H]1CC[C@@H]2CN1C(=O)N2OS(=O)(=O)O)C1C[C@H](n2cccn2)CN1 (stereo partly drawn) [Example 27]	–
2	2	1	4	2	1	8	1	> 32	4	4	4	4	> 32	O=C(NNC(=O)[C@@H]1CC[C@@H]2CN1C(=O)N2OS(=O)(=O)O)[C@@H]1C[C@H](n2ncnn2)CN1 [Example 23]	–
4	8	4	16	8	4	16	4	> 32	2	2	2	2	> 32	O=C(NNC(=O)[C@@H]1CC[C@@H]2CN1C(=O)N2OS(=O)(=O)O)[C@@H]1C[C@H](n2ccnc2)CN1 [Example 30]	–
2	2	1	4	1	1	8	1	> 32	2	2	2	2	> 32	O=C(NOC[C@@H]1C[C@H](n2ccnn2)CN1)[C@@H]1CC[C@@H]2CN1C(=O)N2OS(=O)(=O)O [Example 6]	–
–	–	–	–	2	–	8	–	> 32	4	4	4	4	> 32	O=C(NNC(=O)[C@@H]1CC[C@@H]2CN1C(=O)N2OS(=O)(=O)O)C1C[C@H](n2ccnc2)CN1 (stereo partly drawn) [Example 28]	MIC (E. coli 13351; E. coli 13351): 1 µg/mL; MIC (E. coli 13352; E. coli 13352): 1 µg/mL; MIC (E. coli 13353; E. coli 13353): 1 µg/mL; MIC (E. coli 7 MP): 4 µg/mL; MIC (E. coli M 36; E. coli M 36): 1 µg/mL; MIC (E. coli M 50; E. coli M 50): 2 µg/mL
2	2	2	8	4	4	> 32	4	> 32	8	8	16	16	> 32	O=C(NNC(=O)[C@@H]1CC[C@@H]2CN1C(=O)N2OS(=O)(=O)O)[C@@H]1C[C@H](n2ccnn2)CN1 [Example 26]	–

Reference: patent US10501464B2, “7-oxo-6-(sulfooxy)-1,6-diazabicyclo[3.2.1]octane-2-carboxamide containing compounds and their use in treating bacterial infections” (WOCKHARDT LIMITED, priority 2015, dated 2019)
